± gives the standard deviation.
Assay: chemical recovery from spiked human plasma; higher = better extraction
Conditions: pooled human plasma
[1] = extraction method: PES+SPE (3 d PDMS equilibration then HLB SPE)
[2] = extraction method: SPE only (HLB 96-well)
[3] = extraction method: solvent precipitation (ACN + hexane)
[4] = extraction method: SPE only (HLB 96-well), PES comparison experiment

Row | SMILES | chemical recovery [1] [%] | chemical recovery [3] [%] | chemical recovery [4] [%] | chemical recovery [2] [%]
1 | CC(=O)Nc1c(C)n(C)n(-c2ccccc2)c1=O [N-Acetyl-4-aminoantipyrine] | 44.5 ± 5.9 | – | – | 43.1 ± 2.7
2 | CCNS(=O)(=O)C(F)(F)C(F)(F)C(F)(F)C(F)(F)C(F)(F)C(F)(F)C(F)(F)C(F)(F)F [N-Ethylperfluorooctane-sulfonamide] | – | – | – | 2.91 ± 0.86
3 | CN(C1CCCCC1)C1CCCCC1 [N-Methyl-dicyclohexylamine] | 0.654 ± 0.19 | 50.9 ± 7.1 | – | 30.9 ± 1.6
4 | CCN(CC)C(=O)C(C)Oc1cccc2ccccc12 (configuration not stated) [Napropamide] | – | 70.6 ± 2.5 | – | –
5 | CN1CCC[C@H]1c1cccnc1 [Nicotine] | 0.141 ± 0.063 | 49.1 ± 4.3 | – | 0.399 ± 0.15
6 | O=C1CN(/N=C/c2ccc([N+](=O)[O-])o2)C(=O)N1 [Nitrofurantoin] | – | – | 54.8 ± 8.6 | –
7 | CCCCCCCCOC(=O)CCc1cc(C(C)(C)C)c(O)c(C(C)(C)C)c1 [Octyl-3,5-di-tert-butyl-4-hydroxyhydrocinnamate] | – | – | 0.29 ± 0.58 | –
8 | CNC(=O)O/N=C(\SC)C(=O)N(C)C [Oxamyl] | – | 6.16 ± 4.2 | – | 28 ± 2.6
9 | CCCCC(CC)COC(=O)c1ccc(N(C)C)cc1 (configuration not stated) [Padimate-O] | – | – | – | 22.8 ± 4.1
10 | CCCCCCCCCCCCCCCC(=O)NCCO [Palmitoylethanolamide] | – | – | – | 33.5 ± 8.8
11 | CCCC(Cn1cncn1)c1ccc(Cl)cc1Cl (configuration not stated) [Penconazole] | 51.3 ± 5.9 | 67.7 ± 4.2 | – | 65.9 ± 1.6
12 | O=C(Nc1ccccc1)N(Cc1ccc(Cl)cc1)C1CCCC1 [Pencycuron] | 54 ± 6.3 | – | – | 28.4 ± 3.3
13 | COc1cnc(OC)n2nc(NS(=O)(=O)c3c(OCC(F)F)cccc3C(F)(F)F)nc12 [Penoxsulam] | 53.1 ± 7.8 | 78.9 ± 3.6 | – | 42.2 ± 4.3
14 | NC(=O)C(F)(F)C(F)(F)F [Pentafluoropropionamide] | 9.12 ± 7.6 | 0.174 ± 0.24 | – | 0.923 ± 0.9
15 | CCCC(C)C1(CC)C(=O)NC(=O)NC1=O (configuration not stated) [Pentobarbital] | 49.6 ± 5.1 | 75.7 ± 6.9 | – | 43.8 ± 2
16 | O=C(O)C(F)(F)C(F)(F)C(F)(F)OC(F)(F)F [Perfluoro-4-methoxybutanoic-acid] | 43.5 ± 3.9 | 78.7 ± 3.5 | – | 36.7 ± 2.8
17 | O=S(=O)(O)C(F)(F)C(F)(F)C(F)(F)C(F)(F)F [Perfluorobutanesulfonic-acid] | 49.5 ± 3.7 | 81.9 ± 2.1 | – | 45.3 ± 3.3
18 | O=S(=O)(O)C(F)(F)C(F)(F)C(F)(F)C(F)(F)C(F)(F)C(F)(F)F [Perfluorohexanesulfonic-acid] | 40.9 ± 4.1 | – | – | 34.4 ± 2.7
19 | O=C(O)C(F)(F)C(F)(F)C(F)(F)C(F)(F)C(F)(F)F [Perfluorohexanoic acid] | 40.2 ± 4.7 | 75.3 ± 4.1 | 44.4 ± 8.7 | 35.5 ± 3.9
20 | O=P(O)(O)C(F)(F)C(F)(F)C(F)(F)C(F)(F)C(F)(F)C(F)(F)F [Perfluorohexylphosphonic-acid] | 37.5 ± 6 | 26.7 ± 9.3 | – | 31.2 ± 4.6
21 | O=C(O)C(F)(F)C(F)(F)C(F)(F)C(F)(F)C(F)(F)C(F)(F)C(F)(F)C(F)(F)F [Perfluorononanoic-acid] | – | 66.3 ± 5.1 | – | 8.32 ± 1.8
22 | NS(=O)(=O)C(F)(F)C(F)(F)C(F)(F)C(F)(F)C(F)(F)C(F)(F)C(F)(F)C(F)(F)F [Perfluorooctanesulfonamide] | – | – | 38.8 ± 9.3 | 32 ± 4.9
23 | O=S(=O)(O)C(F)(F)C(F)(F)C(F)(F)C(F)(F)C(F)(F)C(F)(F)C(F)(F)C(F)(F)F [Perfluorooctanesulfonic acid] | – | – | – | 26.8 ± 0.38
24 | O=C(O)C(F)(F)C(F)(F)C(F)(F)C(F)(F)C(F)(F)C(F)(F)C(F)(F)F [Perfluorooctanoic acid] | – | 89.3 ± 19 | 33.6 ± 8.8 | 30.2 ± 2.8

Row | SMILES | chemical recovery [1] [%] | chemical recovery [3] [%] | chemical recovery [4] [%] | chemical recovery [2] [%]
25 | O=C(O)C(F)(F)C(F)(F)C(F)(F)C(F)(F)F [Perfluoropentanoic-acid] | 32.1 ± 3.4 | 78.1 ± 8.5 | – | 31.1 ± 3.3
26 | O=C(O)C(F)(F)C(F)(F)F [Perfluoropropanoic-acid] | 2.17 ± 0.57 | 86.2 ± 7.5 | – | 3.57 ± 2.9
27 | O=C(O)C(F)(F)C(F)(F)C(F)(F)C(F)(F)C(F)(F)C(F)(F)C(=O)O [Perfluorosuberic-acid-] | 0.975 ± 0.36 | 71.9 ± 7.3 | – | 5.56 ± 1.8
28 | O=C(O)C(F)(F)C(F)(F)C(F)(F)C(F)(F)C(F)(F)C(F)(F)C(F)(F)C(F)(F)C(F)(F)C(F)(F)F [Perfluoroundecanoic-acid] | – | – | – | 26.8 ± 6
29 | CC1(C)C(C=C(Cl)Cl)C1C(=O)OCc1cccc(Oc2ccccc2)c1 (configuration not stated) [Permethrin] | 55 ± 9.7 | 35.4 ± 3.1 | – | 2.59 ± 1
30 | NCCc1ccccc1 [Phenethylamine] | – | 47.1 ± 1.7 | – | 6.63 ± 4.2
31 | c1ccc2c(c1)Nc1ccccc1S2 [Phenothiazine] | – | 41.2 ± 4.4 | – | –
32 | CCC(C(N)=O)(C(N)=O)c1ccccc1 [Phenylethylmalonamide] | 43.1 ± 4.2 | – | 60.3 ± 8.1 | 37.2 ± 2.4
33 | NNc1ccccc1 [Phenylhydrazine] | – | 40.7 ± 8.9 | – | –
34 | CCOP(=S)(OCC)SCSCC [Phorate] | 0.327 ± 0.035 | 37.8 ± 3.6 | – | 10.2 ± 3.3
35 | N#Cc1ccccc1C#N [Phthalonitrile] | – | – | – | 8.49 ± 8.2
36 | Nc1c(Cl)c(Cl)nc(C(=O)O)c1Cl [Picloram] | 29.5 ± 5.1 | 63.3 ± 3.8 | – | 34.9 ± 2.7
37 | CC(C)NCC(O)COc1cccc2[nH]ccc12 (configuration not stated) [Pindolol] | 42.3 ± 1.6 | 76 ± 2.5 | – | –
38 | CCc1cc(C)cc(CC)c1-c1c(OC(=O)C(C)(C)C)n2n(c1=O)CCOCC2 [Pinoxaden] | 0.0892 ± 0.042 | – | – | 21.1 ± 3.2
39 | NC(=O)C1(N2CCCCC2)CCN(CCCC(=O)c2ccc(F)cc2)CC1 [Pipamperone] | 4.98 ± 1.1 | 71.4 ± 4.4 | – | 28.3 ± 3.7
40 | CC(C)C[C@H](CN)CC(=O)O [Pregabalin] | – | 66 ± 7.2 | – | 8.64 ± 5.9
41 | CC12CC1(C)C(=O)N(c1cc(Cl)cc(Cl)c1)C2=O (configuration not stated) [Procymidone] | – | – | – | 18.9 ± 2.2
42 | CCCSP(=O)(OCC)Oc1ccc(Br)cc1Cl (configuration not stated) [Profenofos] | – | – | – | 39.9 ± 5.7
43 | CCCOC(=O)NCCCN(C)C [Propamocarb] | – | 54.9 ± 3.7 | – | 6.68 ± 4.3
44 | C#CCOS(=O)OC1CCCCC1Oc1ccc(C(C)(C)C)cc1 (configuration not stated) [Propargite] | – | – | – | 42.4 ± 10
45 | CNC(=O)Oc1ccccc1OC(C)C [Propoxur] | 33.3 ± 8.7 | 46.7 ± 3.7 | – | 37.5 ± 0.59
46 | CCCN(CCC)C(=O)SCc1ccccc1 [Prosulfocarb] | – | 72.6 ± 6.4 | 35.1 ± 6 | 33.6 ± 4.5
47 | CC1=NNC(=O)N(/N=C/c2cccnc2)C1 [Pymetrozine] | – | 75.4 ± 2.9 | – | 13.5 ± 3.4

Continued, in another order:

Row | chemical recovery [1] [%] | chemical recovery [3] [%] | chemical recovery [4] [%] | SMILES | chemical recovery [2] [%]
48 | 29.2 ± 9.2 | 57.5 ± 1 | – | CCNC(=O)c1cccc(C)c1 [N-Ethyl-3-methylbenzamide] | 37.3 ± 0.9
49 | – | 74.2 ± 3.9 | – | CCCCCCCCCCCC(=O)NCCO [N-Lauroylethanolamine] | 47.5 ± 6
50 | – | 1.36 ± 2.4 | – | CN1CCCC1=O [N-Methyl-2-pyrrolidone] | –
51 | 35 ± 8.6 | 88 ± 3.1 | – | CNC(=O)c1ccccc1 [N-Methylbenzamide] | 38.2 ± 3
52 | – | 77.4 ± 3.4 | – | CNS(=O)(=O)c1ccccc1 [N-Methylbenzenesulfonamide] | –
53 | – | 63.3 ± 5.8 | – | CCn1cc(C(=O)O)c(=O)c2cc(F)c(N3CCNCC3)cc21 [Norfloxacin] | –
54 | – | 70.4 ± 5.2 | – | CC1(C)CC(NC(=O)c2cccc(C(=O)NC3CC(C)(C)NC(C)(C)C3)c2)CC(C)(C)N1 [Nylostab-S-EED] | –
55 | – | 141 ± 20 | – | CCCCC(CC)COC(=O)C=Cc1ccc(OC)cc1 (configuration not stated) [Octyl-methoxycinnamate] | 10.2 ± 2.1
56 | 19.8 ± 2.5 | 72.5 ± 3.6 | – | COc1ccc2[nH]c(SCc3ncc(C)c(OC)c3C)nc2c1 [Omeprazole-sulfide] | 42 ± 3.9
57 | 15.3 ± 3.4 | 73.2 ± 2.9 | 45.7 ± 7.4 | Cc1nccn1CC1CCc2c(c3ccccc3n2C)C1=O (configuration not stated) [Ondansetron] | 32.6 ± 2
58 | – | – | 6 ± 3.7 | CCCCCCCCCCC[C@@H](C[C@@H]1OC(=O)[C@H]1CCCCCC)OC(=O)[C@H](CC(C)C)NC=O [Orlistat] | 3.21 ± 3.3
59 | – | 0.126 ± 0.22 | – | NC(=O)N1c2ccccc2CC(=O)c2ccccc21 [Oxcarbazepine] | –
60 | 53.3 ± 3.7 | – | – | CCc1c(Br)c(Br)c(Br)c(Br)c1Br [Pentabromoethylbenzene] | 3.34 ± 1.2
61 | 61.6 ± 3.7 | – | – | Cc1c(Br)c(Br)c(Br)c(Br)c1Br [Pentabromotoluene] | 6.76 ± 2.3
62 | 38.6 ± 6.2 | 61.6 ± 3.8 | – | O=S(=O)(O)C(F)(F)C(F)(F)C(F)(F)C(F)(F)C(F)(F)C(F)(F)C(F)(F)F [Perfluoroheptanesulfonic-acid] | 35.6 ± 2
63 | 47.1 ± 4.2 | 72.9 ± 3.6 | – | O=S(=O)(O)C(F)(F)C(F)(F)C(F)(F)C(F)(F)C(F)(F)F [Perfluoropentanesulfonic-acid] | 36.5 ± 4.8
64 | – | 41.3 ± 11 | – | O=C(O)C(F)(F)C(F)(F)C(F)(F)C(F)(F)C(F)(F)C(F)(F)C(F)(F)C(F)(F)C(F)(F)C(F)(F)C(F)(F)C(F)(F)C(F)(F)F [Perfluorotetradecanoic acid] | –
65 | 0.213 ± 0.049 | – | – | O=P(O)(O)Oc1ccccc1 [Phenylphosphate] | –
66 | 31.6 ± 3.5 | 67 ± 6.7 | 58.6 ± 5.1 | CC[C@H](C)C(=O)O[C@H]1C[C@H](O)C=C2C=C[C@H](C)[C@H](CC[C@@H](O)C[C@@H](O)CC(=O)O)[C@H]21 [Pravastatin] | 28.1 ± 2.9
67 | 41.5 ± 2.6 | 76.5 ± 3.6 | 41.9 ± 4.5 | CCC1(c2ccccc2)C(=O)NCNC1=O [Primidone] | 36.6 ± 3.8
68 | – | 71.33 ± 0.59 | – | CCCN(CCOc1c(Cl)cc(Cl)cc1Cl)C(=O)NC=O [Prochloraz BTS445-96] | –
